Source: patent publication EP0859607B1, “GUANIDINO PROTEASE INHIBITORS” (3-DIMENSIONAL PHARMACEUTICALS, INC., priority 1995, dated 1997)
Structures can show the parent of a compound that is named as a salt.

How the values were obtained:
Format in all cases: biochemical
human α-thrombin = target: T1, human α-thrombin (Homo sapiens, UniProt P00734); assay: In vitro inhibition of purified enzymes, Ki determination: thrombin; conditions: Enzyme: Thrombin; substrate Suc-Ala-Ala-Pro-Arg-pNA 20 µM; pH 7.5, 37°C
T1 construct: Purified human α-thrombin was diluted into assay buffer; purchased Enzyme Research Laboratories (South Bend, Indiana)
Description: (§1) Reagents: All buffer salts were obtained from Sigma Chemical Company (St. Louis, MO), and were of the highest purity available. The enzyme substrates, N-benzoyl-Phe-Val-Arg-p-nitroanilide (Sigma B7632), N-benzoyl-Ile-Glu-Gly-Arg-p-nitroanilide (Sigma B2291), N-p-tosyl-Gly-Pro-Lys-p-nitroanilide (Sigma T6140), and N-succinyl-Ala-Ala-Pro-Phe-p-nitroanilide (Sigma S7388) were all obtained from Sigma.
(§2) Human α-thrombin. human factor Xa, and human plasmin were obtained from Enzyme Research Laboratories (South Bend, Indiana). Bovine α-chymotrypsin and bovine trypsin were obtained from Sigma.
Ki Determinations: All assays are based on the ability of the test compound to inhibit the enzyme-catalyzed hydrolysis of a peptide p-nitroanilide substrate. […] The final concentration for each of the substrates is listed below. In general, substrate concentrations are lower than the experimentally determined value for Km. Test compounds are prepared as a 0.16 mg/mL solution in DMSO. Dilutions are prepared in DMSO yielding 8 final concentrations encompassing a 200-fold concentration range. Enzyme solutions are prepared at the concentrations listed below in assay buffer.
Data corresponding to less than 10% of the total substrate hydrolysis were used in the calculations. The ratio of the velocity (rate of the change in absorbance as a function of time) for a sample containing no inhibitor is divided by the velocity of a sample containing inhibitor, and is plotted as a function of inhibitor concentration. The data are fit to a linear regression, and the value of the slope of the line calculated. The inverse of the slope is the experimentally determined Ki value.
Thrombin: Thrombin activity was assessed as the ability to hydrolyze the substrate Suc-Ala-Ala-Pro-Arg-pNA. […] Final DMSO concentration was 0.3%. […] Final reagent concentrations were: [thrombin] = 0.5 nM, [Suc-Ala-Ala-Pro-Arg-pNA] = 20 µM.

bovine trypsin = target: T2, bovine trypsin (Bos taurus, UniProt P00760); assay: In vitro inhibition of purified enzymes, Ki determination: trypsin; conditions: Enzyme: Trypsin; substrate Bz-Phe-Val-Arg-pNA 14 µM; pH 7.5, 37°C
T2 construct: Purified bovine trypsin was diluted into assay buffer; purchased Sigma
T2 sequence (P00760 24-246): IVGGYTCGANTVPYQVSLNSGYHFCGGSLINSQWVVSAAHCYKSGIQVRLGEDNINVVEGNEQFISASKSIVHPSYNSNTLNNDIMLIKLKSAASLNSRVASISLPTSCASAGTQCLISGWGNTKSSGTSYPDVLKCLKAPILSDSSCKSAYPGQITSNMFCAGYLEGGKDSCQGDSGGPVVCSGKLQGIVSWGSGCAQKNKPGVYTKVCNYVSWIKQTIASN
Description: as §1, §2
(§3) Ki Determinations: All assays are based on the ability of the test compound to inhibit the enzyme-catalyzed hydrolysis of a peptide p-nitroanilide substrate. In a typical Ki determination, substrate is prepared in DMSO, and diluted into an assay buffer consisting of 50 mM HEPES, 200 mM NaCI, pH 7.5. The final concentration for each of the substrates is listed below. In general, substrate concentrations are lower than the experimentally determined value for Km. Test compounds are prepared as a 0.16 mg/mL solution in DMSO. Dilutions are prepared in DMSO yielding 8 final concentrations encompassing a 200-fold concentration range. Enzyme solutions are prepared at the concentrations listed below in assay buffer. […]
Trypsin: Trypsin activity was assessed as the ability to hydrolyze the substrate Bz-Phe-Val-Arg-pNA. […]

human plasmin = target: T3, human plasmin (Homo sapiens, UniProt P00747); assay: In vitro inhibition of purified enzymes, Ki determination: plasmin; conditions: Enzyme: Plasmin; substrate Tos-Gly-Pro-Lys-pNA 22 µM; pH 7.5, 37°C
T3 construct: Purified human plasmin was diluted into assay buffer; purchased Enzyme Research Laboratories (South Bend, Indiana)
T3 sequence (P00747 581-810 limits assumed): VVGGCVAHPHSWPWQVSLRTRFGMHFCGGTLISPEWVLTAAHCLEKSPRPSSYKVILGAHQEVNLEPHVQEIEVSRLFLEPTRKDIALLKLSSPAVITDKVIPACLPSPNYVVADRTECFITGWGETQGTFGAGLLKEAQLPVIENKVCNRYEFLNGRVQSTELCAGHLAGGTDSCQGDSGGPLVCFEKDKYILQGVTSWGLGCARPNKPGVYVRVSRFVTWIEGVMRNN
T3 sequence (P00747 97-580 partner limits assumed): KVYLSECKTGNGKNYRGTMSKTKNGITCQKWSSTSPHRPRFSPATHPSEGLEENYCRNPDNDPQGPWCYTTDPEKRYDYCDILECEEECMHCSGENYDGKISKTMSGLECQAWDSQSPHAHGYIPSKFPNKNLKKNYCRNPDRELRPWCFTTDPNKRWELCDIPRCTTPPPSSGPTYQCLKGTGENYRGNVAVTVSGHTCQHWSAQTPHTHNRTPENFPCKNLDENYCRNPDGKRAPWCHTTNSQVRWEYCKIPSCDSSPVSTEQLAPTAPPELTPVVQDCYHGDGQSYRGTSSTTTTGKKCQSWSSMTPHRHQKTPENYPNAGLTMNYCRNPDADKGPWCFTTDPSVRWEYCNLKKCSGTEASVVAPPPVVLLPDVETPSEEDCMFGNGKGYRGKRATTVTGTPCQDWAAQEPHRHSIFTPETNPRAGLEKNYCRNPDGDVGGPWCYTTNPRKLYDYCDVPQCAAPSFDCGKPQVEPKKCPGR
Description: as §1, §2, §3
Plasmin: Plasmin activity was assessed as the ability to hydrolyze the substrate Tos-Gly-Pro-Lys-pNA. […]

human Factor Xa = target: T4, human Factor Xa (Homo sapiens, UniProt P00742); assay: In vitro inhibition of purified enzymes, Ki determination: factor Xa; conditions: Enzyme: Factor Xa; substrate Bz-Ile-Glu-Gly-Arg-pNA 51 µM; pH 7.5, 37°C
T4 construct: purchased Enzyme Research Laboratories (South Bend, Indiana)
T4 sequence (P00742 235-488 limits assumed): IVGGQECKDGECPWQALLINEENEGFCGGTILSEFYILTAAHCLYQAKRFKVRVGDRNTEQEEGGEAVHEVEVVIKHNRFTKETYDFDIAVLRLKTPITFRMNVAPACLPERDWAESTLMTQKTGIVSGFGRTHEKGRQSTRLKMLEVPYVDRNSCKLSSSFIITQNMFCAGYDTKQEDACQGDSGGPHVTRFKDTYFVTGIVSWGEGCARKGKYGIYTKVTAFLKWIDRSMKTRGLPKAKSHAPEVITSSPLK
T4 sequence (P00742 41-179 partner limits assumed): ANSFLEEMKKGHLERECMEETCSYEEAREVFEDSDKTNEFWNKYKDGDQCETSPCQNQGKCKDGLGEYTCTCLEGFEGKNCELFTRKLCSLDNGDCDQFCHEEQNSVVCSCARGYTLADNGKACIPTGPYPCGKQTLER
Description: as §1, §2
as §3, with “range.” for “range. Enzyme solutions are prepared at the concentrations listed below in assay buffer.”
Factor Xa: Factor Xa activity was assessed as the ability to hydrolyze the substrate Bz-Ile-Glu-Gly-Arg-pNA. […]

bovine α-chymotrypsin = target: T5, bovine α-chymotrypsin (Bos taurus, UniProt P00766); assay: In vitro inhibition of purified enzymes, Ki determination: chymotrypsin; conditions: Enzyme: Chymotrypsin; substrate Suc-Ala-Ala-Pro-Phe-pNA 14 µM; pH 7.5, 37°C
T5 construct: Purified bovine α-chymotrypsin was diluted into assay buffer; purchased Sigma
Description: as §1, §2
as §3, with “range.” for “range. Enzyme solutions are prepared at the concentrations listed below in assay buffer.”
Chymotrypsin: Chymotrypsin activity was assessed as the ability to hydrolyze the substrate Suc-Ala-Ala-Pro-Phe-pNA. […]

Ki (human α-thrombin) [nM] | Molecule | also measured
21 | 2,3-Dichlorobenzenesulfonic acid 3-[[1-(aminoiminomethyl)piperidin-4-yl]methoxy]-5-methylphenyl ester hydrochloride [Example 42] | 
40 | 2-Chlorobenzenesulfonic acid 3-[[1-(aminoiminomethyl)piperidin-4-yl]methoxy]-5-chlorophenyl ester hydrochloride [Example 24] | 
19 | 2-Trifluoromethylbenzenesulfonic acid 3-[[1-(aminoiminomethyl)piperidin-4-yl]methoxy]-5-methylphenyl ester acetic acid salt [Example 38] | 
250 | 2-Chlorobenzenesulfonic acid 3-[[1-(aminoiminomethyl)piperidin-4-yl]methoxy]phenyl ester [Example 1] | 
34 | 3-Amino-2-chlorobenzenesulfonic acid 3-[[1-(aminoiminomethyl)piperidin-4-yl]methoxy]-5-methylphenyl ester dihydrochloride [Example 33] | 
8 | 2-Chlorobenzenesulfonic acid, 3-[[1-(aminoiminomethyl)piperidin-4-yl]methoxy]-5-methylphenyl ester [Example 3] | 

Further lines, the molecule ahead of its results:

Molecule | Ki (human α-thrombin) [nM] | also measured
2-Chlorobenzenesulfonic acid 3-[[1-(aminoiminomethyl)piperidin-4-yl]methoxy]-5-hydroxymethylphenylester [Example 44] | 6900 | 
N=C(N)N1CCC(CNc2cccc(N(Cc3ccccc3)S(=O)(=O)c3ccccc3)c2)CC1 [Example 11, N-benzyl-N-[[3-(1-aminoiminomethyl)-piperidin-4-ylmethylamino]phenyl]benzenesulfonamide] |  | Ki (bovine trypsin): 5300 nM
N=C(N)N1CCN(CCOc2cccc(OS(=O)(=O)c3ccccc3Cl)c2)CC1 [Example 5, 2-Chlorobenzenesulfonic acid 3-[2-[1-(aminoiminomelhyl)piperazin-4-yl]ethoxy]phenyl ester diacetic acid salt] |  | Ki (human plasmin): 29200 nM
2-Chlorobenzenesulfonic acid 3-[[1-(aminoiminomethyl)piperidin-3-yl]methoxy]-5-methylphenyl ester [Example 4] |  | Ki (human Factor Xa): 58100 nM
2-Chlorobenzenesulfonic acid 3-[2-[1-(aminoiminomethyl)piperazin-4-yl]ethoxy]-5-methylphenyl ester diacetic acid salt [Example 6] | 330 | 
Benzenesulfonic acid 3-[[1-(aminoiminomethyl)piperidin-4-yl]methoxy]-5-methylphenyl ester acetic acid salt [Example 17] | 36 | 
N=C(N)N1CCC(COc2cc(OS(=O)(=O)c3ccccc3Cl)ccc2Cc2ccccc2)CC1 [Example 12, 2-Chlorobenzenesulfonic acid 3-[[1-aminoiminomethyl)piperidin-4-yl]methoxy]-4-benzylphenyl ester acetic acid salt] |  | Ki (bovine α-chymotrypsin): 12600 nM
